{"source": "patent US20230257385A1", "about": "“SALT AND SOLID FORMS OF TABERNANTHALOG” (priority 2021, published 2023)", "assay_type_in_all_cases": "physicochemical", "key": {"[1]": {"test": "SIF buffer solubility panel (FaSSIF, FeSSIF, FaSSGF)"}, "[2]": {"test": "Stability of sorbate salt at 95% RH (KNO3) at 20° C. (Example 10, Experiment 10)", "conditions": "XRPD", "procedure": "The samples were maintained under equilibrium humidity of 95% RH at 20° C. and monitored at 5 day by XRPD and 10 day time points by ^1H NMR, XRPD, DSC, TGA and PLM.\nExperiment 10-Sample A was open-capped, and Experiment 10-Sample B was open-capped inside double, cable-tied, electrostatic polythene bags (to mimic a typical packaging configuration) and both were placed inside the same humidity chamber at 95% RH at 20° C. The powders were finely divided and distributed evenly over the base of the vial, such that equal material coverage across the panel was observed. The samples were sub-sampled at intervals of t=0, 5 d and 10 d and analysed by XRPD, DSC, TGA and ^1H NMR, for evidence of phase change or chemical degradation"}, "[3]": {"test": "DVS analyses of sorbate salt Form A / Form C (Example 10)", "from_the_text": "DVS analyses of Form A (Performed on batch reference: Experiment 11-Sample -A1) To determine whether Form A underwent form change at high % RH, DVS residues of Form A, from 0 to 80% RH and 0 to 90% RH, were examined. The specimens were equilibrated to constant mass, at 80% and 90% RH set-points, removed, placed in a capped vial, and analysed by XRPD and DSC. Based on the SC-XRD at 100 K, no regular voids in the crystal structure were large enough to accommodate non-crystal-bonded, molecular water with minimum probe radius of 1.4 Å.\nThe moisture sorption properties of the feed API were analysed by DVS Intrinsic instrument (Surface Measurement System). Approximately 20 to 50 mg of API was weighed onto an aluminium pan and loaded into the instrument equilibrated at 25° C. The sample was equilibrated under a dry atmosphere (0% relative humidity) for 60 minutes, before increasing the humidity from 0% to 30% at 5% step increment and from 30% to 90% at 10% step increment. A desorption cycle was also applied from 90% to 30% (10% step decrement) and from 30% to 0% (5% step decrement). A rate of change in mass per time unit (dm/dt) of 0.002%/min was set as the equilibrium parameter. Kinetic and isotherm graphs were calculated.\n5. DVS Analyses: 0% to 90% DVS Mass Per Unit Time Equilibrated at Dm/Dt (0.0002%/Min)"}, "[4]": {"conditions": "listed as Tabernanthalog sorbate salt (Form A)"}}, "note": "Structures can show the parent of a compound that is named as a salt.", "data": [{"molecule": "COc1ccc2c3c([nH]c2c1)CCN(C)CC3", "note": "[tabernanthalog sorbate salt]", "values": [{"measurement": "solubility in FaSSGF", "setting": "[1]; FaSSGF, 37° C., up to 24 h (timepoints t=0, 1 h, 3 h, 6 h, 24 h)", "result": "remained suspended"}, {"measurement": "disproportionation in the SIF buffers", "setting": "[1]; SIF buffers", "result": "no observed disproportionation"}, {"measurement": "solubility in the SIF buffers", "setting": "[1]; SIF buffers overall", "result": "highly soluble in the SIF buffers (apart from FaSSGF)"}, {"measurement": "form change on storage, double-bagged (closed) vial", "setting": "[2]", "result": "At t=10 d, Form A converted to Pattern #2"}, {"measurement": "form change on storage, open vial", "setting": "[2]", "result": "At t=5 d, Form A converted to Pattern #2"}, {"measurement": "form change on storage, double-bagged (closed) vial", "setting": "[2]; [4]", "result": "after 10 days"}, {"measurement": "form change on storage, open vial", "setting": "[2]; [4]", "result": "converted to Form C (Pattern #2) after 5 days"}, {"measurement": "DVS isotherm", "setting": "[3]; 0% to 90% DVS, mass per unit time equilibrated at dm/dt (0.0002%/min)", "result": "slightly hygroscopic up to 80% RH"}, {"measurement": "DVS 0 to 90 to 0% RH (dm/dt <0.002%)", "setting": "[3]; RH 0.0, falling leg (90 to 0)", "result": "0.0 (0.06%)"}, {"measurement": "DVS 0 to 90 to 0% RH (dm/dt <0.002%)", "setting": "[3]; RH 0.0, rising leg (0 to 90)", "result": "DVS 0 to 90 to 0% RH (dm/dt <0.002%): 0.0 (0.00%),"}, {"measurement": "DVS 0 to 90 to 0% RH (dm/dt <0.002%)", "setting": "[3]; RH 5.0, falling leg (90 to 0)", "result": 0.05, "unit": "%"}, {"measurement": "DVS 0 to 90 to 0% RH (dm/dt <0.002%)", "setting": "[3]; RH 5.0, rising leg (0 to 90)", "result": 0.0, "unit": "%"}, {"measurement": "DVS 0 to 90 to 0% RH (dm/dt <0.002%)", "setting": "[3]; RH 10.0, falling leg (90 to 0)", "result": 0.04, "unit": "%"}, {"measurement": "DVS 0 to 90 to 0% RH (dm/dt <0.002%)", "setting": "[3]; RH 10.0, rising leg (0 to 90)", "result": 0.01, "unit": "%"}, {"measurement": "DVS 0 to 90 to 0% RH (dm/dt <0.002%)", "setting": "[3]; RH 15.0, falling leg (90 to 0)", "result": 0.03, "unit": "%"}, {"measurement": "DVS 0 to 90 to 0% RH (dm/dt <0.002%)", "setting": "[3]; RH 15.0, rising leg (0 to 90)", "result": 0.01, "unit": "%"}, {"measurement": "DVS 0 to 90 to 0% RH (dm/dt <0.002%)", "setting": "[3]; RH 20.0, falling leg (90 to 0)", "result": 0.02, "unit": "%"}, {"measurement": "DVS 0 to 90 to 0% RH (dm/dt <0.002%)", "setting": "[3]; RH 20.0, rising leg (0 to 90)", "result": 0.02, "unit": "%"}, {"measurement": "DVS 0 to 90 to 0% RH (dm/dt <0.002%)", "setting": "[3]; RH 25.0, falling leg (90 to 0)", "result": 0.00, "unit": "%"}, {"measurement": "DVS 0 to 90 to 0% RH (dm/dt <0.002%)", "setting": "[3]; RH 25.0, rising leg (0 to 90)", "result": 0.03, "unit": "%"}, {"measurement": "DVS 0 to 90 to 0% RH (dm/dt <0.002%)", "setting": "[3]; RH 30.0, falling leg (90 to 0)", "result": 0.00, "unit": "%"}, {"measurement": "DVS 0 to 90 to 0% RH (dm/dt <0.002%)", "setting": "[3]; RH 30.0, rising leg (0 to 90)", "result": 0.03, "unit": "%"}, {"measurement": "DVS 0 to 90 to 0% RH (dm/dt <0.002%)", "setting": "[3]; RH 40.0, falling leg (90 to 0)", "result": 0.03, "unit": "%"}, {"measurement": "DVS 0 to 90 to 0% RH (dm/dt <0.002%)", "setting": "[3]; RH 40.0, rising leg (0 to 90)", "result": 0.05, "unit": "%"}, {"measurement": "DVS 0 to 90 to 0% RH (dm/dt <0.002%)", "setting": "[3]; RH 50.0, falling leg (90 to 0)", "result": 0.06, "unit": "%"}, {"measurement": "DVS 0 to 90 to 0% RH (dm/dt <0.002%)", "setting": "[3]; RH 50.0, rising leg (0 to 90)", "result": 0.07, "unit": "%"}, {"measurement": "DVS 0 to 90 to 0% RH (dm/dt <0.002%)", "setting": "[3]; RH 60.0, falling leg (90 to 0)", "result": 0.18, "unit": "%"}, {"measurement": "DVS 0 to 90 to 0% RH (dm/dt <0.002%)", "setting": "[3]; RH 60.0, rising leg (0 to 90)", "result": 0.10, "unit": "%"}, {"measurement": "DVS 0 to 90 to 0% RH (dm/dt <0.002%)", "setting": "[3]; RH 70.0, falling leg (90 to 0)", "result": 0.30, "unit": "%"}, {"measurement": "DVS 0 to 90 to 0% RH (dm/dt <0.002%)", "setting": "[3]; RH 70.0, rising leg (0 to 90)", "result": 0.14, "unit": "%"}, {"measurement": "DVS 0 to 90 to 0% RH (dm/dt <0.002%)", "setting": "[3]; RH 80.0, falling leg (90 to 0)", "result": 0.48, "unit": "%"}, {"measurement": "DVS 0 to 90 to 0% RH (dm/dt <0.002%)", "setting": "[3]; RH 80.0, rising leg (0 to 90)", "result": 0.21, "unit": "%"}, {"measurement": "DVS 0 to 90 to 0% RH (dm/dt <0.002%)", "setting": "[3]; RH 90.0, falling leg (90 to 0)", "result": 0.98, "unit": "%"}, {"measurement": "DVS 0 to 90 to 0% RH (dm/dt <0.002%)", "setting": "[3]; RH 90.0, rising leg (0 to 90)", "result": 0.98, "unit": "%"}, {"measurement": "form of specimens retrieved post DVS (XRPD)", "setting": "[3]; at 0%, 80% and 90% RH", "result": "consistent with Form A"}, {"measurement": "water affinity", "setting": "[3]; up to 90% RH (DVS)", "result": "ca. 1 % w/w"}]}]}
